Molecular target: human TLR7 (Homo sapiens (Human), UniProt Q9NYK1)
Experiment: Test for evaluating the inhibition of the activation of human TLR7 (SEAP reporter, TLR7/NF-κB/SEAPorter HEK293 cell)
Assay type: cell-based
Conditions: R-848 200 nmol/L; for IC50: SEAP reporter; for inhibitory effect against TLR7 in the test for evaluating inhibition of the activation of TLR7: SEAP activity, result in words
Description: As human TLR7 expressing cell line, HEK293 cell line was bought from IMGENEX Corporation (TLR7/NF-ηB/SEAPorter™ HEK293 cell), which is human embryonic kidney cell line and stably expresses full-length human TLR7 gene and secreted alkaline phosphatase (SEAP) reporter gene under the transcriptional control of an NE-ηB response element. The TLR7/NF-ηB/SEAPorter™ HEK293 cell was cultivated with DMEM containing 10% fetal bovine serum (FBS) and 10 μg/mL blasticidin S at 37° C. in the presence of 5% CO2. The TLR7/NF-ηB/SEAPorter™ HEK293 cell was seeded into 96-well microtiter plate at 5×10^4 cell/90 μL/well, and the place was cultivated at 37° C. in a CO2 incubator overnight.
Each compound prepared in the Examples was evaluated by Test 1.

Sequence of human TLR7 (Q9NYK1 27-1049): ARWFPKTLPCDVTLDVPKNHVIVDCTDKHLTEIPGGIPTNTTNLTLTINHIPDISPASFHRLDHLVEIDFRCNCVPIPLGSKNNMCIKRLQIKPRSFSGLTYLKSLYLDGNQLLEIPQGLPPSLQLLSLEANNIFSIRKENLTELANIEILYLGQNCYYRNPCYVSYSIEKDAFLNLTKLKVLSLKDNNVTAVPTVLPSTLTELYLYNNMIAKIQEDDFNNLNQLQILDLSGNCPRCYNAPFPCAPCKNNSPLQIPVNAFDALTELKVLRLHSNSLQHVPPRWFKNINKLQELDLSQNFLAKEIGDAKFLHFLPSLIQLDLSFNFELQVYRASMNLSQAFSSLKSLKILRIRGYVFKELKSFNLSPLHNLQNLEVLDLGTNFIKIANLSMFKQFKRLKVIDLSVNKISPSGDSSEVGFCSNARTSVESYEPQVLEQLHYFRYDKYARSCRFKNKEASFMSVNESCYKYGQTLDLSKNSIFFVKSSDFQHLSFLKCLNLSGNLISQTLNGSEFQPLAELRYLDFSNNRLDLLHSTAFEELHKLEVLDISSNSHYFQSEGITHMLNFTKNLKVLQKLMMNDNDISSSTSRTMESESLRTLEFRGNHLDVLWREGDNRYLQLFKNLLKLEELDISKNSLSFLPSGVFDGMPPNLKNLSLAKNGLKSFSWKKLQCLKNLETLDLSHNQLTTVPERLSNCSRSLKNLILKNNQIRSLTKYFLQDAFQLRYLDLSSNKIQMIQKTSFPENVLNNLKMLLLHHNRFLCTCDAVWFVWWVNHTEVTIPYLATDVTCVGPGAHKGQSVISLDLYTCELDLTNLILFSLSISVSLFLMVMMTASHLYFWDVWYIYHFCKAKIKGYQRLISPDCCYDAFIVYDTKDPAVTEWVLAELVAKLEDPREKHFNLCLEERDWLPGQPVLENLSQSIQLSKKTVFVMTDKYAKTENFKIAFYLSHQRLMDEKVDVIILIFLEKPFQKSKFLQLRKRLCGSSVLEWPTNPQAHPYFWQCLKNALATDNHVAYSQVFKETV

With `CCOc1nc(N)c2nc(-c3cncc(F)c3)n(Cc3ccc(CN4CCC(F)(F)CC4)cc3)c2n1` [Example 99] the IC50 was 146 nM.
For `CCOc1nc(N)c2nc(-c3cncc(F)c3)n(Cc3ccc(CN4CCC4)cc3)c2n1` [Example 100], the “inhibitory effect against TLR7 in the test for evaluating inhibition of the activation of TLR7” value (shortened to “inhibitory effect against TLR7”) was “potent inhibitory effect against TLR7” and the IC50 was 96 nM.
For `CCOc1nc(N)c2nc(-c3cncc(F)c3)n(Cc3ccc(CN4CC(F)(F)C4)cc3)c2n1` [Example 101], the “inhibitory effect against TLR7” value was “potent inhibitory effect against TLR7” and the IC50 was 56 nM.
`CCOc1nc(N)c2nc(-c3cncc(F)c3)n(Cc3ccc(CN(C)CC(F)F)cc3)c2n1` [Example 102] was tested, and the IC50 was 810 nM.
Compound `CCOc1nc(N)c2nc(-c3cncc(F)c3)n(Cc3ccc(CN4CC(C#N)C4)cc3)c2n1` [Example 103] has an IC50 of 1600 nM.
`CCOc1nc(N)c2nc(-c3cncc(F)c3)n(Cc3ccc(CN4CCCC4)cc3)c2n1` [Example 104] showed an IC50 of 760 nM.
In the case of `CCOc1nc(N)c2nc(-c3cncc(F)c3)n(Cc3ccc(CN4CC(C(F)F)C4)cc3)c2n1` [Example 105], the “inhibitory effect against TLR7” value is reported as “potent inhibitory effect against TLR7” and the IC50 is reported as 59 nM.
`CCOc1nc(N)c2nc(-c3cncc(F)c3)n(Cc3ccc(CN4CC(C)(O)C4)cc3)c2n1` [Example 106] was tested, and the “inhibitory effect against TLR7” value was “potent inhibitory effect against TLR7” and the IC50 was 62 nM.
In the case of `COc1nc(C)c2nc(-c3cncc(F)c3)n(Cc3ccc(CN4C[C@@H]5C[C@H]4CN5C)cc3)c2n1` [Example 107, 8-(5-fluoropyridin-3-yl)-2-methoxy-6-methyl-9-(4-{[(1S,4S)-5-methyl-2,5-diazabicyclo[2.2.1]hept-2-yl]methyl}benzyl)-9H-purine], the “inhibitory effect against TLR7” value is reported as “potent inhibitory effect against TLR7” and the IC50 is reported as 27 nM.
`CCOc1nc(C)c2nc(-c3cncc(F)c3)n(Cc3ccc(CN4C[C@@H]5C[C@H]4CN5C)cc3)c2n1` [Example 109, 2-ethoxy-8-(5-fluoropyridin-3-yl)-6-methyl-9-(4-{[(1S,4S)-5-methyl-2,5-diazabicyclo[2.2.1]hept-2-yl]methyl}benzyl)-9H-purine] was tested, and the “inhibitory effect against TLR7” value was “potent inhibitory effect against TLR7” and the IC50 was 10 nM.
For `CCOc1nc(C)c2nc(-c3cncc(F)c3)n(Cc3ccc(CN4C[C@H]5C[C@@H]4CN5C)cc3)c2n1` [Example 110, 2-ethoxy-8-(5-fluoropyridin-3-yl)-6-methyl-9-(4-{[(1R,4R)-5-methyl-2,5-diazabicyclo[2.2.1]hept-2-yl]methyl}benzyl)-9H-purine], the “inhibitory effect against TLR7” value was “potent inhibitory effect against TLR7” and the IC50 was 5 nM.
With `CCCCOc1nc(C)c2nc(-c3cncc(F)c3)n(Cc3ccc(CN4CCOCC4)cc3)c2n1` [Example 112] the IC50 was 100 nM.
In the case of `COCCOc1nc(C)c2nc(-c3cncc(F)c3)n(Cc3ccc(CN4CCOCC4)cc3)c2n1` [Example 114], the IC50 is reported as 300 nM.
Work on `COCCOc1nc(C)c2nc(-c3cncc(F)c3)n(Cc3ccc(CN4CCN(C)CC4)cc3)c2n1` [Example 115] yielded an IC50 of 100 nM.
In the case of `CCOc1nc(C)c2nc(-c3cncc(F)c3)n(Cc3ccc(CN4CC(C#N)C4)cc3)c2n1` [Example 116], the IC50 is reported as 160 nM.
Compound `CCNc1nc(N)c2nc(-c3cncc(F)c3)n(Cc3ccc(CN(C)C)cc3)c2n1` [Example 117] has an IC50 of 7000 nM.
In the case of `CN(C)Cc1ccc(Cn2c(-c3cncc(F)c3)nc3c(N)nc(Cl)nc32)cc1` [Example 118], the IC50 is reported as 950 nM.
In the case of `CCOc1nc(C)c2nc(-c3cncc(F)c3)n(Cc3ccc(CN4C[C@@H]5C[C@H]4CN5)cc3)c2n1` [Example 123, 9-{4-[(1S,4S)-2,5-Diazabicyclo[2.2.1]hept-2-ylmethyl]benzyl}-2-ethoxy-8-(5-fluoropyridin-3-yl)-6-methyl-9H-purine], the “inhibitory effect against TLR7” value is reported as “potent inhibitory effect against TLR7” and the IC50 is reported as 33 nM.
For `CCOc1nc(N)c2nc(-c3cncc(F)c3)n(Cc3ccc(CN4C[C@@H]5C[C@H]4CN5)cc3)c2n1` [Example 124], the IC50 was 220 nM.
In the case of `COc1nc(C)c2nc(-c3cncc(F)c3)n(Cc3ccc(CN4C[C@@H]5C[C@H]4CN5)cc3)c2n1` [Example 125], the “inhibitory effect against TLR7” value is reported as “potent inhibitory effect against TLR7” and the IC50 is reported as 85 nM.
In the case of `CCOc1nc(N)c2nc(-c3cncc(F)c3)n(Cc3ccc(CN4C[C@@H]5C[C@H]4CN5C(C)=O)cc3)c2n1` [Example 126, 1-[(1S,4S)-5-(4-{[6-Amino-2-ethoxy-8-(5-fluoropyridin-3-yl)-9H-purin-9-yl]methyl}benzyl)-2,5-diazabicyclo[2.2.1]hept-2-yl]ethanone], the IC50 is reported as 150 nM.
`CCOc1nc(N)c2nc(-c3cncc(F)c3)n(Cc3ccc(C4CCN(C)CC4)cc3)c2n1` [Example 127, 2-Ethoxy-8-(5-fluoropyridin-3-yl)-9-[4-(1-methylpiperidin-4-yl)benzyl]-9H-purine-6-amine] was tested, and the “inhibitory effect against TLR7” value was “potent inhibitory effect against TLR7” and the IC50 was 53 nM.
With `CCOc1nc(N)c2nc(-c3cncc(F)c3)n(Cc3ccc(CN4C[C@@H]5C[C@H]4CN5CC)cc3)c2n1` [Example 128] the “inhibitory effect against TLR7” value was “potent inhibitory effect against TLR7” and the IC50 was 19 nM.
For `CCOc1nc(N)c2nc(-c3cncc(F)c3)n(Cc3ccc(CN4C[C@@H]5C[C@H]4CN5C4COC4)cc3)c2n1` [Example 129], the “inhibitory effect against TLR7” value was “potent inhibitory effect against TLR7” and the IC50 was 71 nM.
In the case of `CCOc1nc(N)c2nc(-c3cncc(F)c3)n(Cc3ccc(CN4C[C@@H]5C[C@H]4CN5C4CC4)cc3)c2n1` [Example 130], the “inhibitory effect against TLR7” value is reported as “potent inhibitory effect against TLR7” and the IC50 is reported as 43 nM.
With `CCOc1nc(C)c2nc(-c3cncc(F)c3)n(Cc3ccc(CN4C[C@@H]5C[C@H]4CN5CC)cc3)c2n1` [Example 131, 2-ethoxy-9-(4-{[(1S,4S)-5-ethyl-2,5-diazabicyclo[2.2.1]hept-2-yl]methyl}benzyl)-8-(5-fluoropyridin-3-yl)-6-methyl-9H-purine] the “inhibitory effect against TLR7” value was “potent inhibitory effect against TLR7” and the IC50 was 7 nM.
`CCN1C[C@@H]2C[C@H]1CN2Cc1ccc(Cn2c(-c3cncc(F)c3)nc3c(C)nc(OC)nc32)cc1` [Example 132, 9-(4-{[(1S,4S)-5-ethyl-2,5-diazabicyclo[2.2.1]hept-2-yl]methyl}benzyl)-8-(5-fluoropyridin-3-yl)-2-methoxy-6-methyl-9H-purine] was tested, and the “inhibitory effect against TLR7” value was “potent inhibitory effect against TLR7” and the IC50 was 19 nM.
With `CCCN1C[C@@H]2C[C@H]1CN2Cc1ccc(Cn2c(-c3cncc(F)c3)nc3c(C)nc(OC)nc32)cc1` [Example 133, 8-(5-fluoropyridin-3-yl)-2-methoxy-6-methyl-9-(4-{[(1S,4S)-5-propyl-2,5-diazabicyclo[2.2.1]hept-2-yl]methyl}benzyl)-9H-purine] the “inhibitory effect against TLR7” value was “potent inhibitory effect against TLR7” and the IC50 was 13 nM.
For `CCN1C[C@@H]2C[C@H]1CN2Cc1ccc(Cn2c(-c3cncc(F)c3)nc3c(N)nc(OC)nc32)cc1` [Example 134], the IC50 was 170 nM.
For `CCOc1nc(N)c2nc(-c3cncc(F)c3)n(Cc3ccc(C4CCN(C5COC5)CC4)cc3)c2n1` [Example 135], the “inhibitory effect against TLR7” value was “potent inhibitory effect against TLR7” and the IC50 was 85 nM.
Work on `CCOc1nc(N)c2nc(-c3cncc(F)c3)n(Cc3ccc4c(c3)CN(C)C4)c2n1` [Example 137] yielded an IC50 of 840 nM.
For `CCOc1nc(C)c2nc(-c3cncc(F)c3)n(Cc3ccc(C4CCN(C)C4)cc3)c2n1` (stereo not drawn) [Example 138], the “inhibitory effect against TLR7” value was “potent inhibitory effect against TLR7” and the IC50 was 49 nM.
`CCOc1nc(N)c2nc(-c3cncc(F)c3)n(Cc3ccc(COCCN(C)C)cc3)c2n1` [Example 140, 9-(4-{[2-(Dimethylamino)ethoxy]methyl}benzyl)-2-ethoxy-8-(5-fluoropyridin-3-yl)-9H-purine-6-amine] showed an IC50 of 120 nM.
With `CCCCOc1nc(C)c2nc(-c3cncc(F)c3)n(Cc3ccccc3)c2n1` [Example 141, 9-Benzyl-2-butoxy-8-(5-fluoropyridin-3-yl)-6-methyl-9H-purine] the IC50 was 3300 nM.
In the case of `CCCCOc1nc(C)c2nc(-c3cncc(OC)c3)n(Cc3ccccc3)c2n1` [Example 142], the IC50 is reported as 6600 nM.
Compound `CCOc1nc(N)c2nc(-c3cncc(F)c3)n(Cc3ccc(C(=O)N4CCN(C)CC4)cc3)c2n1` [Example 143, (4-{[6-Amino-2-ethoxy-8-(5-fluoropyridin-3-yl)-9H-purin-9-yl]methyl}phenyl) (4-methylpiperazin-1-yl)methanone] has an IC50 of 1570 nM.
Compound `CCOc1nc(N)c2nc(-c3cncc(F)c3)n(Cc3ccc(C(=O)N4CCC(C)CC4)cc3)c2n1` [Example 144] has an IC50 of 2600 nM.
With `CCOc1nc(N)c2nc(-c3cncc(F)c3)n(Cc3ccc(C(=O)NCCN(C)C)cc3)c2n1` [Example 145] the IC50 was 2100 nM.
Compound `CCOc1nc(N)c2nc(-c3cncc(F)c3)n(Cc3ccc(C(=O)NCCN4CCCC4)cc3)c2n1` [Example 146] has an IC50 of 1700 nM.
Compound `CCCCOc1nc(N)c2nc(-c3cncc(F)c3)n(Cc3cccc(C(=O)N4CCN(C)CC4)c3)c2n1` [Example 147] has an IC50 of 3500 nM.
`CCOc1nc(N)c2nc(-c3cncc(F)c3)n(Cc3ccc(C4CCN(C(=O)CN(C)C)CC4)cc3)c2n1` [Example 148, 1-[4-(4-{[6-Amino-2-ethoxy-8-(5-fluoropyridin-3-yl)-9H-purin-9-yl]methyl}phenyl)piperidin-1-yl]-2-(dimethylamino)ethanone] was tested, and the “inhibitory effect against TLR7” value was “potent inhibitory effect against TLR7” and the IC50 was 16 nM.

— patent US10703755B2, “Substituted purine derivative” (SUMITOMO DAINIPPON PHARMA CO., LTD., priority 2016, dated 2020)
